Data set [1] addresses T1, ERα (Homo sapiens, UniProt P03372).
T1 sequence (P03372 311-547 limits assumed): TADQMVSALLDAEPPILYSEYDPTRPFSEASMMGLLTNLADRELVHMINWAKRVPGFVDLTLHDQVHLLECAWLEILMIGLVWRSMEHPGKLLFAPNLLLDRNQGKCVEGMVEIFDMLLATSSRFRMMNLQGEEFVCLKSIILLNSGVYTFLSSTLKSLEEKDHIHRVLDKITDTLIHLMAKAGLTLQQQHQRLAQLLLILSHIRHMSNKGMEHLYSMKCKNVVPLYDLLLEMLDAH
Description: TR-FRET coactivator (PGC-1 peptide) recruitment assay, ERα LBD. The class given is biochemical. Conditions: E2 4 nM; for IC50: read-out: inhibition of coactivator recruitment IC50, ERα.
Description: drug concentrations: 5 nM to 3 μM) after an incubation time of 10 or 30 min.
Coactivator recruitment was tested using the LanthaScreen® TR-FRET ERα coactivator assay. The binding
of the fluorescein-labeled PGC1a coactivator peptide to the ERα LBD protein labeled with terbium was

Data set [2] addresses T2, ERα (Homo sapiens, UniProt P03372).
T2 sequence (P03372 1-595): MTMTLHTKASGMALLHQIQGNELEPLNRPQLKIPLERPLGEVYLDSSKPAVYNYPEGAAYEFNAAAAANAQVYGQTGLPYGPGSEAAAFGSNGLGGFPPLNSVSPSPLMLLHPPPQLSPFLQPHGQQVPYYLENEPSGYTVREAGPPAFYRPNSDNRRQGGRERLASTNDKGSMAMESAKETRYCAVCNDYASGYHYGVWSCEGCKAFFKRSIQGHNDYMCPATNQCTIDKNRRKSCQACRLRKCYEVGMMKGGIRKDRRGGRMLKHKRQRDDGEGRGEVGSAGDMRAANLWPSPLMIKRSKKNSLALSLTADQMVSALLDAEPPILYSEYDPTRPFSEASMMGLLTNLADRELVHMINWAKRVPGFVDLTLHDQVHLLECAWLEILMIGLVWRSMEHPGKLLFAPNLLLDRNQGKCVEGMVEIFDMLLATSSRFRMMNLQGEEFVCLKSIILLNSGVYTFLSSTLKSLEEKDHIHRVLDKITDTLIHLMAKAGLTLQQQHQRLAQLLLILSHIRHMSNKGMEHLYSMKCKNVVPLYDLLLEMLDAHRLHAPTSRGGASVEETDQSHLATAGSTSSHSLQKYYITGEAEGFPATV
Kind of data set: In-Cell Western immunoassay, ERα levels in MCF-7 cells. The conditions noted are these: for % ERα remaining [1 μM]: MCF-7 cells, 24 h, compared to the solvent control (DMSO). The class given is cell-based.
Description: Degradation was evaluated with the CellTagTM 700 In-Cell Western kit (LI-COR, Lincoln) according to the manufacturer’s protocol. MCF-7 cells were treated, and calculation was performed as previously described.[24]

Data set [3] concerns MCF-7TamR cells. Description: Crystal violet assay, MCF-7TamR cells. The class given is cell-based.
Data set [4] addresses T3, ERβ (Homo sapiens, UniProt Q92731). Conditions: for RBA ERβ: relative binding affinity compared to E2 (100%); for IC50: read-out: TR-FRET ERβ IC50, displacement of fluorescent-labeled E2 from the LBD of ERβ.
Target sequence in this assay (Q92731 264-498 limits assumed): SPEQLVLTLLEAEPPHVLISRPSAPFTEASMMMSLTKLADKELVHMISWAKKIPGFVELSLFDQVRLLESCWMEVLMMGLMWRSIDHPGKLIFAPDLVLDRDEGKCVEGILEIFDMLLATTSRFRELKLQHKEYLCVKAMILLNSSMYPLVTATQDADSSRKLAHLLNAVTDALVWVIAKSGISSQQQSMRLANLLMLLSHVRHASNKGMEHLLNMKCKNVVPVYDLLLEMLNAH
Description: (§1) LanthaScreen TR-FRET ER alpha/beta competitive binding assays (Invitrogen, Carlsbad) were used to investigate the binding affinity to the isolated receptors according to the manufacturer′s protocols. Measurement was performed with an Enspire multimode plate reader (PerkinElmer Life Sciences, Waltham). Calculations were performed with Excel (Microsoft, Redmond) and GraphPad Prism (GraphPad Software, San Diego).
The target in data set [5] is T3, ERβ. The conditions noted are these: incubation time 30 min, E2 34 nM; for IC50: read-out: inhibition of coactivator recruitment IC50, ERβ.
Target sequence in this assay (Q92731 whole entry, the tested form may be a part): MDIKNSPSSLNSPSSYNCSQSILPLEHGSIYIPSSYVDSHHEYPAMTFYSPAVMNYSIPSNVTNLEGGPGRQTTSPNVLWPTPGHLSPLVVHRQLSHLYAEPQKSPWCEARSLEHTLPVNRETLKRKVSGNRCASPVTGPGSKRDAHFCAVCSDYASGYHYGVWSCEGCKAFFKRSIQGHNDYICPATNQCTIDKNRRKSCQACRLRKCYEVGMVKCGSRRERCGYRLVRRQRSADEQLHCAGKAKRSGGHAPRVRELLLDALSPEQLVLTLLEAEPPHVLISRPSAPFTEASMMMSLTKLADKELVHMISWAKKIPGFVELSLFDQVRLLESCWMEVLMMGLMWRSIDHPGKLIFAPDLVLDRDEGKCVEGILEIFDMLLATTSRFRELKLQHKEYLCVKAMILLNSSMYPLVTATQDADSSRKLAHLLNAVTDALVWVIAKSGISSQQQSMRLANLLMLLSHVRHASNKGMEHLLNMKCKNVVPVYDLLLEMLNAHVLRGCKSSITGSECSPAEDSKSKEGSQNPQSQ
Data set [6] relates to MCF-7 cells. Description: Crystal violet assay, MCF-7 cells. The class given is cell-based. The conditions noted are these: for time to cytocidal effects, MCF-7: time-dependent experiment.
The test system of data set [7] is MDA-MB-231 cells. Description: Crystal violet assay, MDA-MB-231 cells. The class given is cell-based.
Data set [8] addresses T2, ERα. Kind of data set: Luciferase reporter gene assay (transactivation), U2OS cells transfected with pSG5-ERα. The conditions noted are these: inhibition of E2-induced (0.03 nM) transactivation. The class given is cell-based.
The target in data set [9] is T3, ERβ. Kind of data set: Luciferase reporter gene assay (transactivation), U2OS cells transfected with pSG5-ERβ. The class given is cell-based. The conditions noted are these: inhibition of E2-induced (0.3 nM) transactivation.
Target sequence in this assay (Q92731 whole entry, the tested form may be a part): as above
The target of data set [10] is T1, ERα. Conditions: for IC50: read-out: TR-FRET ERα IC50, displacement of fluorescent-labeled E2 from the LBD of ERα; for RBA ERα: relative binding affinity compared to E2 (100%).
Description: as §1
The conditions of data set [11]: 0.5 mM, methanol/2× PBS (75:25), 37 °C, 72 h.
Description: For the interpretation of the biological results, it is necessary to obtain information about the isomerization by simulating physiological conditions.
Data set [12] concerns MCF-7 cells. Description: Cellular uptake into MCF-7 cells (fluorometry, related to protein content). The class given is in vitro ADME. Conditions: 10 μM, after 4 h (saturation), nmol compound/mg protein.
Description: (§2) The compounds were incubated at a concentration of 10 μM with either MCF-7 or COS-7 cells, and the intracellular amount, determined by fluorometry, was related to the protein content.[42]
(§3) The determination of the cellular uptake in MCF-7 and COS-7 cells was performed as already described.[24] Measurement was conducted with the Enspire multimode plate reader.
In data set [13] the test system is COS-7 cells. Kind of data set: Cellular uptake into COS-7 cells (fluorometry, related to protein content). The class given is in vitro ADME, African green monkey. The conditions noted are these: 10 μM, after 4 h, nmol compound/mg protein.
Description: as §2, §3
Where [14] appears, read: MCF7, read-out: % efficacy [1 μM], downregulation of ERα compared to fulvestrant (100%), MCF-7, 1 μM.

Like-named read-outs stand apart in the source and are kept apart here.

On to `CCC(=C(c1ccc(O)cc1)c1ccc(/C=C/C(=O)O)cc1)c1ccccc1` (mixture of isomers) [GW7604, (E/Z)-3-(4-((E)-1-(4-Hydroxyphenyl)-2-phenylbut-1-enyl)phenyl)acrylic acid, reference compound], for which, in data set [1] (1 μM, after 10 min of incubation), the “reduction of PGC-1 binding at ERα” value was “completely reduced”. This compound also returned a coactivator binding in data set [1] (5 μM, after 30 min, ERα) of 45%. The Emax at 1 µM in [2] (MCF7, read-out: % efficacy [1 μM]) was 56%. The “% ERα remaining [1 μM]” value in data set [2] came to 44.3 ± 12.1%. Further, the “T/Ccorr MCF-7TamR” value in data set [3] is given as 68%. In addition, in data set [4], the “RBA ERβ” value turned out to be 27.1%. Also, the “repression of PGC1 binding at ERβ” value in data set [5] (3 μM) is “complete repression”.

On to `CC/C(=C(\c1ccc(O)cc1)c1ccc(OCCN(C)C)cc1)c1ccccc1` [4-OHT, (Z)-4-hydroxytamoxifen], for which the “T/Ccorr MCF-7” value in [6] (10 μM, 120 h) is recorded as −55%. Moreover, the “time to cytocidal effects, MCF-7” value in data set [6] (10 μM) is given as 48 h; in [6] (20 μM), 24 h. Besides, the “T/Ccorr MCF-7TamR” value in [3] (10 μM, 120 h) is listed as −57%. The “T/Ccorr MDA-MB-231” value in data set [7] (10 μM, 120 h) is given as 10%. Besides, the “time to cytocidal effects, MDA-MB-231” value in data set [7] (20 μM, time-dependent experiment) was 24 h.

For `CCC(=C(c1ccc(O)cc1)c1ccc(/C=C/C(=O)NCCCNC(=O)CCc2nc3ccc(OC)cc3[nH]2)cc1)c1ccccc1` (mixture of isomers) [Compound 32, (E)-3-[4-((E/Z)-1-(4-Hydroxyphenyl)-2-phenylbut-1-enyl)phenyl]-N-[3-(3-(5-methoxy-1H-benzo[d]imidazol-2-yl)propanamido)propyl]acrylamide], the IC50 came out at 21.5 ± 10.7 nM in data set [8], 26.9 ± 5.7 nM in [9], 4.11 ± 1.88 nM in [10] and 3.01 ± 4 nM in data set [4]. Further, in data set [2], the “% ERα remaining [1 μM]” value stood at 120.3 ± 31.6%. Also, in data set [10], the “RBA ERα” value was 8%. The “RBA ERβ” value in data set [4] stood at 24.7%.

For `CCC(=C(c1ccc(O)cc1)c1ccc(/C=C/C(=O)NCCCNC(=O)c2ccc(N3CCN(C(=O)CCCn4c(=S)[nH]c5ccccc5c4=O)CC3)cc2)cc1)c1ccccc1` (mixture of isomers) [Compound 17], the IC50 turned out to be 104 ± 14 nM in data set [8], 48 ± 12 nM in data set [9], 4.63 ± 1.74 nM in data set [10] and 18.5 ± 4.8 nM in data set [4]. Moreover, in data set [2] (setting [14]), the Emax at 1 µM was 94.5%. The “% ERα remaining [1 μM]” value in [2] is 5.5 ± 5.0%. Besides, in data set [2] (downregulation of ERα compared to fulvestrant (100%), MCF-7, 1 μM), the “% efficacy [1 μM]” value is 95%. Further, in data set [3], the “T/Ccorr MCF-7TamR” value is on record as “about 40%”. For the same compound, in data set [10], the “RBA ERα” value was found to be 7.1%. Further, the “RBA ERβ” value in data set [4] was found to be 4%. Besides, the “amount of the E isomer” value in data set [11] amounted to 25%.

With `CCC(=C(c1ccc(O)cc1)c1ccc(/C=C/C(=O)NCCCCCCNC(=O)CCc2nc3cc(OC)ccc3[nH]2)cc1)c1ccccc1` (mixture of isomers) [Compound 38, (E)-3-[4-((E/Z)-1-(4-Hydroxyphenyl)-2-phenylbut-1-enyl)phenyl]-N-[6-(3-(5-methoxy-1H-benzo[d]imidazol-2-yl)propanamido)hexyl]acrylamide], the IC50 is 9.4 ± 2.7 nM in data set [8], 9 ± 3.3 nM in data set [9], 2.61 ± 2.25 nM in data set [10] and 5.22 ± 0.65 nM in data set [4]. The “% ERα remaining [1 μM]” value in [2] was 101.8 ± 1.9%. In addition, the “T/Ccorr MCF-7TamR” value in data set [3] was “about 40%”. The “RBA ERα” value in [10] is 12.6%. Moreover, the “RBA ERβ” value in data set [4] came to 14.3%.

`CCC(=C(c1ccc(O)cc1)c1ccc(/C=C/C(=O)NCCCNC(=O)c2ccc(N3CCN(C(=O)CCCCCCCn4c(=S)[nH]c5ccccc5c4=O)CC3)cc2)cc1)c1ccccc1` (mixture of isomers) [Compound 18]: the concentration for half-maximal inhibition (IC50) came to 914 ± 50 nM in data set [8], 157 ± 22 nM in data set [9], 4.23 ± 1.12 nM in data set [10] and 6.81 ± 1.86 nM in data set [4]. Further, in data set [2] (setting [14]), the Emax at 1 µM was found to be 64%. Also, the “RBA ERα” value in data set [10] stood at 7.8%. The “RBA ERβ” value in [4] stood at 10.9%.

`CCC(=C(c1ccc(O)cc1)c1ccc(/C=C/C(=O)NCCCNC(=O)CCCn2c(=S)[nH]c3ccccc3c2=O)cc1)c1ccccc1` (mixture of isomers) [Compound 15]: the “cellular uptake, MCF-7 cells” value in data set [12] worked out at 2.8 nmol/mg. The “cellular uptake, COS-7 cells” value in data set [13] came out at 1.6 nmol/mg. For the same compound, the IC50 in data set [8] came to 30.2 ± 14.3 nM; in data set [9] it was 4.1 ± 0.6 nM; in data set [10], 4.01 ± 1.9 nM; in data set [4], 12.6 ± 4.8 nM. Moreover, the Emax at 1 µM in [2] (setting [14]) was 60%. In addition, the “T/Ccorr MCF-7TamR” value in [3] is recorded as “about 40%”. The “T/Ccorr MDA-MB-231” value in [7] came out at 20%. For the same compound, the “RBA ERα” value in data set [10] was determined as 8.2%. Also, the “RBA ERβ” value in data set [4] is on record as 5.9%.

Regarding `CCC(=C(c1ccc(O)cc1)c1ccc(/C=C/C(=O)NCCCCCNC(=O)CCc2nc3cc(O)ccc3[nH]2)cc1)c1ccccc1` (mixture of isomers) [Compound 42, (E)-N-[5-(3-(5-Hydroxy-1H-benzo[d]imidazol-2-yl)propanamido)pentyl]-3-[4-((E/Z)-1-(4-hydroxyphenyl)-2-phenylbut-1-enyl)phenyl]acrylamide], the IC50 came to 23.3 nM in data set [1] (incubation time 10 min); 30.9 ± 8.7 nM in data set [8]; 46.5 ± 20.7 nM in data set [9]; 1.28 ± 0.58 nM in data set [10]; 3.81 ± 2.35 nM in data set [4]; 64 nM in data set [5]. The Emax at 1 µM in data set [2] (setting [14]) amounted to 8%. Also, the “% ERα remaining [1 μM]” value in data set [2] came out at 92.0 ± 5.5%. In addition, the “RBA ERα” value in [10] worked out at 25.7%. Also, the “RBA ERβ” value in data set [4] is 19.5%.

Turning to `CCC(=C(c1ccc(O)cc1)c1ccc(/C=C/C(=O)NCCCCCNC(=O)CCc2nc3ccc(OC)cc3[nH]2)cc1)c1ccccc1` (mixture of isomers) [Compound 36, (E)-3-[4-((E/Z)-1-(4-Hydroxyphenyl)-2-phenylbut-1-enyl)phenyl]-N-[5-(3-(5-methoxy-1H-benzo[d]imidazol-2-yl)propanamido)pentyl]acrylamide], the IC50 in [1] (incubation time 10 min) was found to be 36.3 nM; in data set [1] (incubation time 30 min), 153 nM; in data set [8] it was 9.2 ± 3.2 nM; in [9], 8.9 ± 4 nM; in [10], 1.56 ± 0.63 nM; in data set [4], 7.84 ± 0.25 nM. For the same compound, the IC50 in [5] is 154 nM. Besides, in data set [2], the “% ERα remaining [1 μM]” value is 130.0 ± 15.1%. Further, the “RBA ERα” value in data set [10] is 21.1%. Moreover, the “RBA ERβ” value in [4] is 9.5%.

For the origin of these results see PMC8279417 (Journal of Medicinal Chemistry, 2021).
